Results taken from patent publication US9822373B2, “Mutant cells for protein secretion and lignocellulose degradation” (The Regents of the University of California, priority 2011, dated 2017).

What was measured:
Neurospora crassa = experiment: Avicel hydrolysis assay with shake flask culture supernatants; format: cell-based
Description: Cultures were grown in 1% sucrose for 24 hours followed by the addition of 2% sucrose or 0.2% cellobiose. Supernatant was harvested after 24 (WT, Δ3βG and Δ3βGΔcre) or 72 hours (Δ3βG). The WT Avicel® culture was grown for 5 days on 2% Avicel®, Δ3βG was grown in 1% sucrose for 24 hours followed by 48 hours in 1% Avicel® and Δ3βGΔcre was grown in 1% sucrose for 24 hours followed by 24 hours in 1% Avicel®.
Total Avicelase activity was conducted in 250 mL media bottles incubated at 50° C. on a orbital shaker at 200 rpm. Each bottle contained 1% cellulose (Avicel®) and 50 mM (pH 5.0) sodium acetate in a working volume of 50 mL. Tetracycline (10 μg/mL) was added to prevent microbial contamination. Bioreactor culture broth samples were buffer exchanged using a 10 kDa MWCO centrifugal filter to remove any soluble sugars prior to initiating hydrolysis experiments. After pre-incubating the hydrolysis mixture to 50° C., enzyme was added (1 mL filtered culture broth). Samples were taken every 4 hours for the first 12 hours and then every 12 hours thereafter for a total of 48 hours. Hydrolysis experiments were performed in triplicate.
Sucrose, fructose, glucose and cellobiose were measured on a DIONEX ICS-3000 HPLC (Dionex Corp., Sunnyvale, Calif.) using a CarboPac PA20 Analytical Column (3×150 mm) and a CarboPac PA20 guard column (3×30 mm) at 30° C. Following injection of 25 μl of diluted samples, elution was performed with 100 mM KOH (isocratic) at 0.4 ml/min. Sugars were detected using PAD, Four-Potential Carbohydrate Waveform and Peaks were analyzed using the Chromeleon software package.

[1] = system: cellobiohydrolase I (cbh-1, NCU07340); experiment: Quantitative RT-PCR of cbh-1 expression after 4 h induction with a carbon source; format: cell-based, Neurospora crassa
Description: Strains were inoculated at an OD595 equal to 0.05 in 50 ml Vogel's salts with 2% (wt/vol) sucrose in a 250 ml Erlenmeyer flask and grown under constant light at 200 rpm for 16 hours. The biomass was then spun at 4000 rpm for 10 minutes and washed in Vogel's twice to remove any excess sucrose. The biomass was then added to a new 50 ml culture with 2% (wt/vol) sucrose, cellobiose (Sigma) or Avicel® PH 101 (Avicel®). Cultures were induced for 4 hours under constant light at 200 rpm. The culture biomass was then harvested by filtration over a Whatman glass microfiber filter (GF/F) on a Buchner funnel and washed with 50 ml Vogel's, biomass was flash frozen in liquid Nitrogen and stored at −80° C.
Total RNA from frozen samples was isolated using Zirconia/Silica beads (0.2 g, 0.5 mm diameter; Biospec) and a Mini-Beadbeater-96 (Biospec) with 1 mL TRIzol reagent (Invitrogen) according to manufacturer's instructions. Total RNA was further purified by digestion with TURBO DNA-free (Ambion) and an RNeasy kit (Qiagen). RNA integrity was checked by Nanodrop and agarose gel electrophoresis.
Quantitative RT-PCR was performed using the EXPRESS One-Step SYBR GreenER Kit (Invitrogen) and the StepOnePlus Real-Time PCR System (Applied Biosystems). Reactions were performed in triplicate with a total reaction volume of 10 ul including 300 nM each forward and reverse primers and 75 ng template RNA. Data Analysis was performed by the StepOne Software (Applied Biosystems) using Relative Quantitation/Comparative CT (ΔΔCT). Data was normalized to the endogenous control actin with expression on sucrose as the reference sample. Error bars indicate a 95% confidence interval. The RT-PCR primers were used as described in (Tian et al., 2009).
Conidia from strains were inoculated at an OD595 equal to 0.05 in 50 ml Vogel's salts (45) with 2% w/v sucrose in a 250 ml Erlenmeyer flask and grown under constant light at 200 rpm for 16 hours. Biomass was then spun at 4200 rpm for 10 minutes and washed in Vogel's salts twice to remove any excess sucrose. Biomass was then added to a new flask containing 50 ml Vogel's salts supplemented with 1% w/v sucrose, 0.2% w/v cellobiose (Sigma) or 1% w/v Avicel® PH 101 (Sigma). Cultures were induced for 4 hrs under constant light at 200 rpm. The culture biomass was then harvested by filtration over a Whatman glass microfiber filter (GF/F) on a Buchner funnel and washed with 50 ml Vogel's salts. […] Three independent biological duplicates (flasks) were evaluated for each time point. […]
Quantitative RT-PCR was performed using the EXPRESS One-Step SYBR GreenER Kit (Invitrogen) and the StepOnePlus Real-Time PCR System (Applied Biosystems). […] Data Analysis was performed by the StepOne Software (Applied Biosystems) using the Relative Quantitation/Comparative CT (ΔΔCT) setting. […]

[2] = system: NCU05924 (endoxylanase, gh10-1); experiment: mRNA sequencing (RNA-Seq), transcript abundance of gh10-1; format: cell-based, Neurospora crassa; settings: Δ3βG mutant; 4 hours after transfer to 0.2% cellobiose
Description: Conidia from strains were inoculated at an OD595 equal to 0.05 in 50 ml Vogel's salts (45) with 2% w/v sucrose in a 250 ml Erlenmeyer flask and grown under constant light at 200 rpm for 16 hours. Biomass was then spun at 4200 rpm for 10 minutes and washed in Vogel's salts twice to remove any excess sucrose. Biomass was then added to a new flask containing 50 ml Vogel's salts supplemented with 1% w/v sucrose, 0.2% w/v cellobiose (Sigma) or 1% w/v Avicel® PH 101 (Sigma). Cultures were induced for 4 hrs under constant light at 200 rpm. The culture biomass was then harvested by filtration over a Whatman glass microfiber filter (GF/F) on a Buchner funnel and washed with 50 ml Vogel's salts. The biomass was flash frozen in liquid nitrogen and stored at −80° C. Three independent biological duplicates (flasks) were evaluated for each time point.
Total RNA from frozen samples was isolated using Zirconia/Silica beads (0.5 mm diameter; Biospec) and a Mini-Beadbeater-96 (Biospec) with 1 mL TRIzol reagent (Invitrogen) according to the manufacturer's instructions. […]
mRNA sequencing was performed using an Illumina kit (RS-100-0801) with isolated RNA. The final cDNA library was quantified by an Agilent bioanalyzer 2000 and sequenced using an Illumina Genome Analyzer-II using standard Illumina operating procedures. […]

SMILES: O=C[C@H](O)[C@@H](O)[C@H](O[C@@H]1O[C@H](CO)[C@@H](O)[C@H](O)[C@H]1O)[C@H](O)CO [cellobiose]
- hydrolysis of crystalline cellulose by culture supernatant (Neurospora crassa; WT cultures grown on or induced with the substance): did not
- hydrolysis of crystalline cellulose by culture supernatant (Neurospora crassa; Δ3βG cultures grown on or induced with the substance): hydrolyzed crystalline cellulose
- hydrolysis of crystalline cellulose by culture supernatant (Neurospora crassa; Δ3βGΔcre cultures grown on or induced with the substance): hydrolyzed crystalline cellulose
- induction for cbh-1 compared to relative expression on sucrose ([1]; WT strain, 2% carbon source, 4 h induction): 20 fold
- cbh-1 increase in relative expression over expression on sucrose ([1]; triple β-glucosidase mutant, 2% carbon source, 4 h induction): 6,500 fold
- increase in transcription of cbh-1 above expression on sucrose in the same strain ([1]; Δcre-1 strain, 4 h induction (Example 1)): 600 fold
- induction of cbh-1 ([1]; Δcre-1 strain, shifted from sucrose to 0.2% cellobiose for 4 hrs): 3,000 fold
- FPKMs of NCU05924 (endoxylanase, gh10-1) [2]: 10,000 FPKMs
